Where “and” joins values, the source holds several entries; their conditions need not be identical. Equal entries are not always repeated.
Experiments:
GFP^2-RG-RLuc biosensor = assay: Hybrid BRET (BRET^H) thrombin cleavage assay, microplate; type: biochemical; details: 54 nM thrombin, 90 minutes, 30° C.; 1 μM fusion protein, 5 μM native coelenterazine
Text: A combination of BRET^1 and BRET^2 techniques was used and referred to herein as hybrid BRET. Specifically, RLuc with native coelenterazine substrate was used as the bioluminescent donor and GFP^2 as the acceptor molecule. The donor and acceptor were linked by a peptide sequence containing the thrombin cleavage site ([…]↓ GSLQ (RG)) (GFP^2-RG-RLuc) and expressed in E. coli.
GFP^2-RG-RLuc biosensor was expressed and purified as reported previously (Dacres et al. 2009a). The purified fusion protein was in thrombin cleavage buffer (10 mM Tris (pH 8.0), 100 mM NaCl, 1 mM EDTA). The final concentration of the native coelenterazine substrate (Biosynth) used for microfluidic based assays was 58.6 μM and 5 μM for plate-reader based assays. 1 unit (U)/μl thrombin protease (Amersham Biosciences) solution was prepared in 1× phosphate buffer saline (PBS).
Simultaneous dual emission hybrid BRET measurements were carried out both in a microplate using a SpectraMax M2 spectrofluorimeter (Molecular Devices) and in the microfluidics apparatus described below. Spectral scans of BRET constructs were recorded using the luminescence scan mode between 400 and 650 nm on addition of 5 μM native coelenterazine substrate to 1 μM of biosensor. […]
Using the microplate spectrometer, hybrid BRET ratios were calculated as the ratio of bioluminescence emissions measured at 500 nm and 470 nm. […]

[1] = test system: BRET^2 based thrombin biosensor; details: cited from earlier work
[2] = test system: GFP^2-RG-RLuc thrombin sensor; assay: BRET^2 thrombin sensor in microfluidic chip with optical detection chamber; type: biochemical
Text: In a BRET^2 system, Renilla luciferase (RLuc) with coelenterazine 400a (CLZ400A) substrate was used as the photon donor and GFP^2 was used as the acceptor molecule. As the luminescence of BRET^2 is 100-fold smaller than that of the BRET^1.5, the BRET^2 reaction requires efficient mixing at optimal temperature, detection chamber size, flow rates and concentrations to produce highest bioluminescence signal. Thus, this system is used to evaluate different mixing mechanisms (FIG. 8), reaction chamber designs and reaction conditions.
PDMS chips with a Y-shaped microchannel with three mixing elements (FIG. 8), with a rectangular cross section in the microchannels (200 μm in width and 30 μm in height) was used to monitor BRET^2 assays. The detection chambers with different diameter and height were located at the end of the microchannels. The emitting bioluminescence was collected by a multimode optical fiber located underneath the detection chamber. The emissions will be split by dichroic block and going through two band pass filters corresponding to emission band of the donor (430 nm-455 nm) and the emission band of the acceptor (515 nm-555 nm) before going into two corresponding photomultiplier tubes (Hamamatsu H7421). […]
Approximately 75% decrease in BRET^2 signal was measured for on-chip reaction at input flow rate of 50 μL/hr (FIG. 12).

thrombin
BRET^H ratio following thrombin cleavage (GFP^2-RG-RLuc biosensor): 0.75±0.04 and 0.79±0.05
decrease in BRET^H ratio following thrombin cleavage (GFP^2-RG-RLuc biosensor): approximately 32%
kcat of thrombin [1]: ≈ 85 s^−1
change in BRET^2 ratio (GFP/RLuc) after digestion of the sensor ([2]; 270 pM thrombin): approximately tenfold
decrease in BRET^2 signal, on-chip reaction ([2]; 540 nM thrombin, 1 μM sensor, 12.5 μM substrate, two-inlet device, 50 μL/hr): Approximately 75%

Reference: patent US11385234B2, “Methods and systems for detecting an analyte or classifying a sample” (Commonwealth Scientific and Industrial Research Organisation, priority 2012, dated 2022)
